Measured values as given in patent US20170226121A1, “MODULATORS OF VIRUS ASSEMBLY AS ANTIVIRAL AGENTS” (Indiana University Research and Technology Corporation, priority 2011, published 2017).
“And” between values parts separate entries of the source, which are not always exact repeats. Equal entries are not always repeated. Where two headings read alike, the source gives them in different places.

Experiments:
[1] = target: labeled HBV core protein dimer, Cp150Bo (Hepatitis B virus genotype D subtype adw, UniProt P03147, C107A/C48A/C61A/R150C); assay: Fluorescence quenching assay of HBV assembly; type: biochemical; details: single time point 24 hr after assembly initiated with NaCl, about 30±15% assembly without stimulation
[2] = tested on: HBV production in HepAD38 (AD38) cells; assay: Antiviral activity, inducible HBV expression system, AD38 cells; type: cell-based, hepatitis B virus; details: for EC90: suppression of HBV production by 90%
Description: Antiviral activity was measured using an inducible HBV expression system, AD38 cells. […] Initial experiments tested the activity of 10 μM HAP (percentage viral assembly at 24 hour). For active molecules, effective concentrations were determined for suppression of HBV production by 50% and by 90%; this value is reported in μM.

HepG2 = assay: in vitro
Description: (§1) Antiviral activity was measured using an inducible HBV expression system, AD38 cells. (Ladner, S. K. et al., Antimicrob Agents Chemother 41, 1715-20 (1997)). Initial experiments tested the activity of 10 μM HAP (percentage viral assembly at 24 hour). For active molecules, effective concentrations were determined for suppression of HBV production by 50% and by 90%; this value is reported in μM. Compound toxicity was tested in the parent cell line, HepG2. […] All of these experiments were performed blind, in the laboratory of Raymond Schinazi (Emory University).

in vitro = details: human
Description: as §1

[3] = suppression of HBV production by 50%, read-out: HepAD38 EC50
[4] = value in parentheses in CC50 cell

Chain of labeled HBV core protein dimer, Cp150Bo (P03147 1-150 C48A/C61A/C107A/R150C): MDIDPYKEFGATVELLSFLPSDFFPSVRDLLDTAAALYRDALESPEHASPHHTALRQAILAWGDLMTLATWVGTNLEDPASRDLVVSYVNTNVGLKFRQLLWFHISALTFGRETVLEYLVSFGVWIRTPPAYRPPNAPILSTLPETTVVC

| Compound | Assembly [1] | also measured |
| --- | --- | --- |
| CCOC(=O)C1=C(CNC23CC4CC(CC(C4)C2)C3)NC(c2ccccn2)=NC1c1ccc(F)cc1Cl (stereo not shown) [Compound B-57] | 49% | – |
| COC(=O)C1=C(C)NC(c2ccccc2)=NC1c1ccc(F)cc1Cl (stereo not shown) [Compound B-7] | 96% | – |
| C#CCCCCC(=O)N1CCN(CC2=C(C(=O)OC)C(c3ccc(F)cc3Cl)N=C(c3ccccn3)N2)CC1 (stereo not shown) [Compound B75] | 134% | – |
| COC(=O)C1=C(CN2CCCCC2)NC(c2ccccn2)=NC1c1ccc(F)cc1Cl (stereo not shown) [Compound B-60] | 60% | – |
| COC(=O)C1=C(CN2CCN(CCOCCOCCN=[N+]=[N-])CC2)NC(c2ccccn2)=NC1c1ccc(F)cc1Cl (stereo not shown) [Compound B74] | 21% | – |
| CCOC(=O)C1=C(CNCC23CC4CC(CC(C4)C2)C3)NC(c2ccccn2)=NC1c1ccc(F)cc1Cl (stereo not shown) [Compound B-58] | 42% | – |
| COC(=O)C1=C(CN2CCN(CC3CCCCC3)CC2)NC(c2ccccn2)=NC1c1ccc(F)cc1Cl (stereo not shown) [Compound B-56] | 15% | – |
| COC(=O)C1=C(CN2CCN(C(=O)CCCC(=O)NCCCN=[N+]=[N-])CC2)NC(c2ccccn2)=NC1c1ccc(F)cc1Cl (stereo not shown) [Compound B-070] | 123% | % Inhibition ([2]; compound at 10 μM): 99.88%; Δ-Ct-HBV ([2]; compound at 10 μM): 9.77; EC50 [2, 3]: 2300 nM; EC90 [2]: 5900 nM; CC50 (HepG2): 8400 nM; (YI) ratio of CC50/EC50, therapeutic index (HepG2; [4]): 3.7 |
| COC(=O)C1=C(CN2CCOCC2)NC(c2ccccn2)=NC1c1ccc(F)cc1Cl (stereo not shown) [Compound B-061] | – | EC50 ([2]; given in place of % inhibition at 10 μM, read-out: EC50 (printed in % Inhibition column)): 550 nM; EC50 [2, 3]: 490 nM; EC90 [2]: 1000 nM; Assembly ([1]; listed as B61): 99%; Assembly ([1]; listed as B-61): 51% and 80%; CC50 (HepG2): > 100000 nM; (YI) ratio of CC50/EC50, therapeutic index (HepG2; [4]): > 200 |
| CCOC(=O)C1=C(c2ccccn2)NC(c2ccccn2)=NC1c1ccc(F)cc1Cl (stereo not shown) [Compound B-23] | 47% | – |
| COC(=O)C1=C(CCl)NC(c2ccccn2)=NC1c1ccc(F)cc1Cl (stereo not shown) [Compound B-25] | 54% | – |
| COC(=O)C1=C(CN2CCN(CCOCCN=[N+]=[N-])CC2)NC(c2ccccn2)=NC1c1ccc(F)cc1Cl (stereo not shown) [Compound B72] | 29% | – |
| COC(=O)C1=C(CN2CCOCC2)NC(c2ccncc2)=NC1c1ccc(F)cc1Cl (stereo not shown) [Compound B76] | 36% | – |
| COC(=O)C1=C(C)NC(c2ccncc2)=NC1c1ccc(F)cc1Cl (stereo not shown) [Compound B-1] | 78% | – |
| C#CCNC(=O)C1=C(C)NC(c2ccncc2)=NC1c1ccc(F)cc1Cl (stereo not shown) [Compound B-3] | 48% | – |
| COC(=O)C1=C(C(C)C)NC(c2ccccn2)=NC1c1ccc(F)cc1Cl (stereo not shown) [Compound B-24] | 70% | – |
| COC(=O)C1=C(CCl)NC(c2ccccn2)=NC1c1ccc(F)cc1Cl (stereo not shown) [HAP2, reference compound] | 99% | – |
| COC(=O)C1=C(C)NC(c2ccc(Br)cn2)=NC1c1ccc(F)cc1Cl (stereo not shown) [Compound B-17] | 87% | – |
| C#CCNC(=O)CCCC(=O)N1CCN(CC2=C(C(=O)OC)C(c3ccc(F)cc3Cl)N=C(c3ccccn3)N2)CC1 (stereo not shown) [Compound B71] | 133% | – |
| Nc1ccn([C@@H]2CS[C@H](CO)O2)c(=O)n1 [Compound 3TC, lamivudine, reference compound] | – | inhibition at 10 µM ([2]; Hepatitis B virus, HePAD38, compound at 10 μM): 98.6%; EC50 ([2]; Hepatitis B virus, HePAD38, suppression of HBV production by 50%, read-out: HepAD38 EC50): 60 nM; EC90 ([2]; Hepatitis B virus, HePAD38): 200 nM; Δ-Ct-HBV ([2]; compound at 10 μM): 6.17; CC50 (in vitro): > 100000 nM; (YI) ratio of CC50/EC50, therapeutic index (HepG2): > 1000 |
| CC1=C(C(=O)OCCC2CCC(CNS(=O)(=O)c3cccc4c(N(C)C)cccc34)C2)C(c2ccc(F)cc2Cl)N=C(c2ccncc2)N1 (stereo not shown) [Compound B-5] | 54% | – |

| Compound | Assembly [1] | also measured |
| --- | --- | --- |
| COC(=O)C1=C(CN2CCC3=NN(C)C(=O)C3C2)NC(c2ccccn2)=NC1c1ccc(F)cc1Cl (stereo not shown) [Compound B69] | 54% | – |
| CC1=C(C(=O)NCc2cn(CCN3C(=O)c4ccccc4C3=O)nn2)C(c2ccc(F)cc2Cl)N=C(c2ccncc2)N1 (stereo not shown) [Compound B-13] | 55% | – |
| COC(=O)C1=C(CN2CCN(Cc3ccccn3)CC2)NC(c2ccccn2)=NC1c1ccc(F)cc1Cl (stereo not shown) [Compound B-55] | 60% | – |
| COC(=O)C1=C(CN2CCNC(=O)CC2)NC(c2ccccn2)=NC1c1ccc(F)cc1Cl (stereo not shown) [Compound B-120] | 96% | % Inhibition ([2]; compound at 10 μM): 99.87%; Δ-Ct-HBV ([2]; compound at 10 μM): 9.65; EC50 [2, 3]: 300 nM; EC90 [2]: 900 nM; CC50 (HepG2): 32000 nM; (YI) ratio of CC50/EC50, therapeutic index (HepG2; [4]): 99 |
| C#CCNCC1=C(C(=O)OC)C(c2ccc(F)cc2Cl)N=C(c2ccccn2)N1 (stereo not shown) [Compound B-34] | 65% | – |
| CC1=C(C(=O)OCCN=[N+]=[N-])C(c2ccc(F)cc2Cl)N=C(c2ccncc2)N1 (stereo not shown) [Compound B-2] | 51% | – |
| C#CCOC(=O)C1=C(C)NC(c2ccccn2)=NC1c1ccc(F)cc1Cl (stereo not shown) [Compound B-12] | 83% | – |
| C#CCOCC1(COCC#C)COC2(CCN(CC3=C(C(=O)OC)C(c4ccc(F)cc4Cl)N=C(c4ccccn4)N3)CC2)OC1 (stereo not shown) [Compound B67] | 84% | – |
| COC(=O)C1=C(C)NC(c2ccccn2)=NC1c1ccc(F)cc1Cl (stereo not shown) [Compound B-6] | 95% | – |
| COC(=O)C1=C(CN2CCCC2)NC(c2ccccn2)=NC1c1ccc(F)cc1Cl (stereo not shown) [Compound B-35] | 87% | – |
| COC(=O)C1=C(C)NC(c2nc3ccc(OC)cc3s2)=NC1c1ccc(F)cc1Cl (stereo not shown) [Compound B-4] | 56% | – |
| COC(=O)C1=C(CN2CCN(Cc3ccc(Br)cc3)CC2)NC(c2ccccn2)=NC1c1ccc(F)cc1Cl (stereo not shown) [Compound B-54] | 21% | – |
| COC(=O)C1=C(C)NC(=S)NC1c1ccc(F)cc1Cl (stereo not shown) [Compound B77] | 15% | – |
| C#CC(O)(C#C)C1CCN(CC2=C(C(=O)OC)C(c3ccc(F)cc3Cl)N=C(c3ccccn3)N2)CC1 (stereo not shown) [Compound B-59] | 57% | – |
| CCOC(=O)C1=C(c2ccccc2)NC(c2ccccn2)=NC1c1ccc(F)cc1Cl (stereo not shown) [Compound B-22] | 77% | – |
| C#CCCCCN1CCN(CC2=C(C(=O)OC)C(c3ccc(F)cc3Cl)N=C(c3ccccn3)N2)CC1 (stereo not shown) [Compound B-073] | 69% | % Inhibition ([2]; compound at 10 μM): 64.44%; Δ-Ct-HBV ([2]; compound at 10 μM): 1.5; EC50 [2, 3]: 7600 nM; EC90 [2]: > 10000 nM; CC50 (HepG2): 3700 nM; (YI) ratio of CC50/EC50, therapeutic index (HepG2; [4]): 0.5 |
| COC(=O)C1=C(C)NC(c2ccccn2)=NC1c1ccc(F)cc1Br (stereo not shown) [Compound B-18] | 93% | – |
| COC(=O)C1=C(CN2CCNCC2)NC(c2ccccn2)=NC1c1ccc(F)cc1Cl (stereo not shown) [Compound B-36] | 92% | – |
| C#CCNC(=O)c1ccc(C2=NC(c3ccc(F)cc3Cl)C(C(=O)OC)=C(C)N2)nc1 (stereo not shown) [Compound B-15] | 48% | – |
| COC(=O)C1=C(CNCCOCCOCCN=[N+]=[N-])NC(c2ccccn2)=NC1c1ccc(F)cc1Cl (stereo not shown) [Compound B68] | 49% | – |
